In assay [1] the target is Serotonin 2 (5-HT2) receptor (Rattus norvegicus, UniProt P30994+P08909+P14842). The assay is described as follows: Binding affinity at serotonin 5-hydroxytryptamine 2 receptor by [3H]ketanserin displacement. The assay is classed as protein assay.
In assay [2] the target is D(2) dopamine receptor (Rattus norvegicus, UniProt P61169). In words: Binding affinity at dopamine D2 receptor by [3H]spiperone displacement.
Chain of D(2) dopamine receptor (P61169 whole entry): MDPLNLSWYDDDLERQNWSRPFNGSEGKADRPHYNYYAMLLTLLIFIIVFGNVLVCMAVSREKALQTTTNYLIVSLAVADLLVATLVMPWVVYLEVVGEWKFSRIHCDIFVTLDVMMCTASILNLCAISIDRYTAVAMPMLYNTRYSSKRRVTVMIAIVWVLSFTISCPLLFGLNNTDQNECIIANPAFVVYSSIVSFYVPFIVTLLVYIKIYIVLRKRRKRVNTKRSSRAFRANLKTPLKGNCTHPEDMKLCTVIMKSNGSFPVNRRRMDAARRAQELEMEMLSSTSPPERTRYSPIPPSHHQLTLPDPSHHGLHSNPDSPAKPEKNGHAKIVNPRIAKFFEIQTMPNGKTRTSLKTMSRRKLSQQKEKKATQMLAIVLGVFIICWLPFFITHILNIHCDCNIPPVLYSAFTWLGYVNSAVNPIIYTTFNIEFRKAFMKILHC

By IC50 is commonly meant the point on the concentration scale where inhibition reaches its midpoint. As to `O=C1NCCN1CCN1CCN([C@@H]2C[C@@H](c3ccc(F)cc3)c3cc(Cl)ccc32)CC1`, the half-inhibitory concentration (IC50) in assay [1] worked out at 2.6 nM.
With `CN1CCC(=C2c3ccccc3C(O)c3ccccc32)CC1` (stereo not drawn), the 50% inhibitory concentration (IC50) is 1600 nM in assay [2] (read-out: IC50) and 2.6 nM in assay [1].
In assay [1], `OCCN1CCN([C@@H]2C[C@@H](c3ccc(F)cc3)c3ccc(C(F)(F)F)cc32)CC1` [TEFLUDAZINE] yielded an IC50 of 3.1 nM.
`CN1CCC(=C2c3ccccc3C=Cc3ccccc32)CC1` [CYPROHEPTADINE] registered an IC50 in assay [2] of 140 nM.
As a reminder, the Ki is the dissociation constant of the complex between target and ligand, obtained from inhibition or displacement. Read a high Ki as a looser hold on the target. `CN1CCC(=C2c3ccccc3C=Cc3ccc(Br)cc32)CC1` had a Ki in assay [2] of 4 nM.
For the compound `O=C1NCCN1CCN1CC=C(c2cn(-c3ccc(F)cc3)c3ccccc23)CC1`, the IC50 is 5.1 nM in assay [2] (read-out: IC50) and 1.7 nM in assay [1].

For the origin of these results see ChEMBL document CHEMBL1127838, “Development of a receptor-interaction model for serotonin 5-HT2 receptor antagonists. Predicting selectivity with respect to dopamine D2 receptors” (J Med Chem, 1994).
